From patent US6573262B2, “Composition and antiviral activity of substituted indoleoxoacetic piperazine derivatives” (priority 2000, dated 2003) come the findings set out here.

Broadly, the EC50 is the concentration needed to bring the measured effect to its halfway point.

The assay concerns HIV-1 single-round infectious reporter virus. The experiment in a line: microbe, parasite or virus in culture. Conditions: Human immunodeficiency virus 1, HeLa-CD4/CCR5, 72 h, read-out: EC50 Group from Table 1. It is filed as cell-based.
`O=C(C(=O)N1CCN(C(=O)c2ccccn2)CC1)c1c[nH]c2c(-c3ncon3)ccc(F)c12` [Example 191]: the EC50 is below 1 µM. In the case of `C[C@@H]1CN(C(=O)c2ccccn2)CCN1C(=O)C(=O)c1c[nH]c2c(-c3ncon3)ccc(F)c12` [Example 192], the EC50 was below 1 µM. Take `O=C(C(=O)N1CCN(C(=O)c2ccccc2)CC1)c1c[nH]c2c(-c3nnc(C(Cl)(Cl)Cl)o3)ccc(F)c12` [Example 193]: the EC50 is below 1 µM. Consider `O=C(C(=O)N1CCN(C(=O)c2ccccc2)CC1)c1c[nH]c2c(-c3n[nH]c(CCl)n3)ccc(F)c12` [Example 194], for which the EC50 is below 1 µM. The result for `C[C@@H]1CN(C(=O)c2ccccc2)CCN1C(=O)C(=O)C1CNc2c(C(=O)O)cccc21` (stereo partly drawn) [Example 215, 1-benzoyl-3-(R)-methyl-4-[(7-carboxyindolin-3-yl)-2-oxoacetyl]piperazine] reads below 1 µM. `COC(=O)/C=C/c1ccc(F)c2c(C(=O)C(=O)N3CCN(C(=O)c4ccccc4)CC3)c[nH]c12` [Example 217]: the EC50 was below 1 µM.
